Measured values as given in patent US20050119289A1 (priority 2002, published 2005).
Converted amounts (≈) assume the structure as drawn. Where a name gives a salt, the structure may show the parent alone. Read-outs that look alike come from different tables or passages of the source. Blank lines part the entries; values can stand above or below the compound they belong to.

Tests used:
Assay type in all cases: cell-based
P-gp = P-gp (Homo sapiens, UniProt P08183); test: Rhodamine 123 efflux assay, HeL023 cells; design: nearly all (100±1%) the cells expressing high level of functional P-gp; endogenous in cells; host or cells: HeL023 human erythroleukemia cells; settings: for inhibition of P-gp activity (in words): Rh123 efflux; for % of Rh123 negative cells: antagonist 10 μM, cells expressing P-gp activity
Chain of P-gp (P08183 whole entry): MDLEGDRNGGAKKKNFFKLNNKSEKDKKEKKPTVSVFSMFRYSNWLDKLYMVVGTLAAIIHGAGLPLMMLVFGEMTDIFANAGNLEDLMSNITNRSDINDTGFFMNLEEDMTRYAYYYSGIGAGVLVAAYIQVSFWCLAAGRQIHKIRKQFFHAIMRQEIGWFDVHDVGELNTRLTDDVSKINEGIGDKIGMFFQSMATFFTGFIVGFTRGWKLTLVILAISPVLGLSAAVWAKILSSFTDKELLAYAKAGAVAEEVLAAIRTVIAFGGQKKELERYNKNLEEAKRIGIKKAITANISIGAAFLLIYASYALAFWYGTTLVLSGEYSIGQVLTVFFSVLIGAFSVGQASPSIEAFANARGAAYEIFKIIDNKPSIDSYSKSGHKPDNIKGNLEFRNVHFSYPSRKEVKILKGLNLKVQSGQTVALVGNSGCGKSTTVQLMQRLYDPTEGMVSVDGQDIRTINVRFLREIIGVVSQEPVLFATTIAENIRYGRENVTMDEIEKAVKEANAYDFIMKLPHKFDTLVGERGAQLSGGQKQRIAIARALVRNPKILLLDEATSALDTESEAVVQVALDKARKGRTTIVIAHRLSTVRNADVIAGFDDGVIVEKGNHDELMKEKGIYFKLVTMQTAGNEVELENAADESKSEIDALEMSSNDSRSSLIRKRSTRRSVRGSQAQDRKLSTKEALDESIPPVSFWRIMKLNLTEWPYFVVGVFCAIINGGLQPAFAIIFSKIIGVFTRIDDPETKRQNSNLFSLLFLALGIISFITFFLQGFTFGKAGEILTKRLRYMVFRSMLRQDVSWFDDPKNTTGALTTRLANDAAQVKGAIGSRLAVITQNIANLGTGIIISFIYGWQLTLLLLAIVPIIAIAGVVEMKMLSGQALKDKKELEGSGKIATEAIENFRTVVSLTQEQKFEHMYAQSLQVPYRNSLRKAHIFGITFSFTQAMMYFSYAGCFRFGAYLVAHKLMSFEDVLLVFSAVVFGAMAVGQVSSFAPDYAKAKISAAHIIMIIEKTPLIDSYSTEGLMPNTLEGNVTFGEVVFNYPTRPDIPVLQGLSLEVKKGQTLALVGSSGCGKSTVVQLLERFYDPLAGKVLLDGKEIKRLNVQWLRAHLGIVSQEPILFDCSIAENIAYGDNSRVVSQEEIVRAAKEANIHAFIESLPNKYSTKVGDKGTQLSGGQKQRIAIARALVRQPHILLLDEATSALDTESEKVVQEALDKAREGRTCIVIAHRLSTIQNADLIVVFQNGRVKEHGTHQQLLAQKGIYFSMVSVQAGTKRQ
Method: 5×10^5 cells from each subline were loaded with 50 ng/ml of rhodamine 123 for 30 minutes at 37° C. in medium. The cells were washed and resuspended in dye-staining agent free medium for 3 hours at 37° C. to allow rhodamine 123 efflux. The cells were then washed twice and the fluorescence of intracellular rhodamine 123 were analysed with Flow cytometer (residual fluorescence FRES). The fluorescence was compared with loaded cells maintained at 4° C. to prevent drug export (maximal fluorescence FMAX). […] Cells from each subline that were not being exposed to rhodamine 123 were used as negative controls.
Rhodamine 123 (Rh 123) retention, a P-gp functional assay, was studied in all cell lines. This assay was performed by incubating cells with Rh 123 and determining Rh 123 accumulation by measuring its fluorescence. The maximum load of Rh 123 (FMAX) was quantified at the end of treatment harvesting the cells and storing them at 4° C. to prevent any active Rh123 efflux. The P-gp drug efflux was allowed incubating Rh 123-loaded cells in fresh new medium Rh 123-free for 3 hours at 37° C. After this incubation, residual fluorescence (FRES) was measured and compared to FMAx.

[1] = tested on: human colon carcinoma HT29 cell line; test: MTT growth inhibitory assay, HT29; settings: for IC50: Homo sapiens, HT-29, HT29 cells, read-out: IC50 of anti-neoplastic agent used jointly with A3 antagonist; for HT29 more refractory than the A375 cell line: ratio of IC50 HT29 vs A375
Excerpt: (§1) The cells are sub-cultured twice a week.

[2] = tested on: human lung carcinoma SKMES cell line; test: MTT growth inhibitory assay, SKMES; settings: SKMES cells, read-out: IC50 of anti-neoplastic agent used jointly with A3 antagonist
Excerpt: as §1

SMILES: Nc1nc2ccc(Cl)cc2c2nc(-c3ccco3)nn12 [CGS 15943, 5-amino-9-chloro-2-(furyl) 1,2,4-triazolo[1,5-c]quinazoline]
- inhibition of P-gp activity (in words) (P-gp): much lower effect on P-gp activity

- inhibition of P-gp activity (in words) (P-gp): strong inhibitors of P-gp activity
- % of Rh123 negative cells (P-gp): 0.4 ± 0.2%
SMILES: CCN(CC)c1ccc(NC(=O)Nc2nc3nn(C)cc3c3nc(-c4ccco4)nn23)cc1 [IL-10, N-1-(4-diethylamino-phenyl)-N′-5-[8-methyl-2-(2-furyl)-pyrazolo [4,3-e]1,2,4-triazolo[1,5-c]pyrimidine]-urea]

- inhibition of P-gp activity (in words) (P-gp): strong inhibitors of P-gp activity
SMILES: Cc1ccc(NC(=O)Nc2nc3nn(C)cc3c3nc(-c4ccco4)nn23)cc1 [MRE 3046F20, 5-N-(4-methylphenyl-carbamoyl)amino-8-methyl-2 (2-furyl)-pyrazolo-[4,3e]-1,2,4-triazolo[1,5-c]pyrimidine]

- inhibition of P-gp activity (in words) (P-gp): strong inhibitors of P-gp activity
SMILES: CCCn1cc2c(nc(NC(=O)Nc3ccccc3)n3nc(-c4ccco4)nc23)n1 [MRE 3055F20, 5-N-(4-phenylcarbamoyl)amino-8-propyl-2 (2furyl)-pyrazolo[4,3e]-1,2,4triazolo-[1,5c]pyrimidine]

- inhibition of P-gp activity (in words) (P-gp): strong inhibitors of P-gp activity
- % of Rh123 negative cells (P-gp): 1.0 ± 0.2%
SMILES: CCCCn1cc2c(nc(NC(=O)Nc3ccccc3)n3nc(-c4ccco4)nc23)n1 [MRE 3062F20, 5-N-(4-phenyl-carbamoyl)amino-8-butyl-2(2furyl)-pyrazolo-[4,3e]-1,2,4triazolo[1,5-c]pyrimidine]

- inhibition of P-gp activity (in words) (P-gp): much lower effect on P-gp activity
SMILES: Nc1nc(NCCc2ccc(O)cc2)nc2nc(-c3ccco3)nn12 [ZM 241385, 4-(2-[7-amino-2-(2-furyl)-[1,2,4]triazolo[2,3-a][1,3,5]triazin-5-ylamino]ethyl)phenol]

- IC50 ([1]; with IL-10 0.5 μg/ml): 0.31 µg/mL (≈ 0.57 µM)
- IC50 ([1]; with IL-11 0.5 μg/ml): 0.38 µg/mL (≈ 0.699 µM)
- IC50 ([1]; with MRE3008F20 1 μg/ml): 0.28 µg/mL (≈ 0.515 µM)
SMILES: COc1cccc2c1C(=O)c1c(O)c3c(c(O)c1C2=O)C[C@@](O)(C(=O)CO)C[C@@H]3O[C@H]1C[C@H](N)[C@H](O)[C@H](C)O1 [doxorubicin]
- HT29 more refractory than the A375 cell line [1]: approximately 30 fold

- IC50 ([1]; with IL-10 0.5 μg/ml): 0.77 µg/mL
- IC50 ([1]; with IL-11 0.5 μg/ml): 0.85 µg/mL
- IC50 ([1]; with MRE3008F20 1 μg/ml): 0.53 µg/mL
- IC50 ([2]; with IL-10 0.5 μg/ml): 0.67 µg/mL
- IC50 ([2]; with IL-11 0.5 μg/ml): 0.061 µg/mL
- IC50 ([2]; with MRE3008F20 1 μg/ml): 0.57 µg/mL
SMILES: CCc1c2c(nc3ccc(OC(=O)N4CCC(N5CCCCC5)CC4)cc13)-c1cc3c(c(=O)n1C2)COC(=O)[C@]3(O)CC [irinotecan HCL]

SMILES: O=C1c2c(O)ccc(O)c2C(=O)c2c(NCCNCCO)ccc(NCCNCCO)c21 [mitoxantrone]
- HT29 more refractory than the A375 cell line [1]: approximately 30 fold

- IC50 ([2]; with IL-10 0.5 μg/ml): 0.0011 µg/mL (≈ 0.00136 µM)
- IC50 ([2]; with IL-11 0.5 μg/ml): 0.00094 µg/mL (≈ 0.00116 µM)
- IC50 ([2]; with MRE3008F20 1 μg/ml): 0.0013 µg/mL (≈ 0.0016 µM)
SMILES: CC[C@]1(O)C[C@@H]2CN(CCc3c([nH]c4ccccc34)[C@@](C(=O)OC)(c3cc4c(cc3OC)N(C)[C@H]3[C@@](O)(C(=O)OC)[C@H](OC(C)=O)[C@]5(CC)C=CCN6CC[C@]43[C@@H]65)C2)C1 [vinblastine]
